From US5019575A, “Novel pyridazinone compounds, compositions thereof and method of use” (Orion-yhtyma Oy, priority 1989, dated 1991)
Read-outs that look alike come from different tables or passages of the source.

Columns and labels:
[1] = target: T1, cardiac phosphodiesterase III (PDEIII), dog (Canis lupus familiaris, UniProt A0A8I3NYE0); test: Inhibition of cardiac phosphodiesterase III, dog heart enzyme preparation; format: biochemical
T1 construct: enzyme preparation isolated from dog and guinea-pig heart; from tissue; host or cells: dog heart
T1 sequence (A0A8I3NYE0 1-1135): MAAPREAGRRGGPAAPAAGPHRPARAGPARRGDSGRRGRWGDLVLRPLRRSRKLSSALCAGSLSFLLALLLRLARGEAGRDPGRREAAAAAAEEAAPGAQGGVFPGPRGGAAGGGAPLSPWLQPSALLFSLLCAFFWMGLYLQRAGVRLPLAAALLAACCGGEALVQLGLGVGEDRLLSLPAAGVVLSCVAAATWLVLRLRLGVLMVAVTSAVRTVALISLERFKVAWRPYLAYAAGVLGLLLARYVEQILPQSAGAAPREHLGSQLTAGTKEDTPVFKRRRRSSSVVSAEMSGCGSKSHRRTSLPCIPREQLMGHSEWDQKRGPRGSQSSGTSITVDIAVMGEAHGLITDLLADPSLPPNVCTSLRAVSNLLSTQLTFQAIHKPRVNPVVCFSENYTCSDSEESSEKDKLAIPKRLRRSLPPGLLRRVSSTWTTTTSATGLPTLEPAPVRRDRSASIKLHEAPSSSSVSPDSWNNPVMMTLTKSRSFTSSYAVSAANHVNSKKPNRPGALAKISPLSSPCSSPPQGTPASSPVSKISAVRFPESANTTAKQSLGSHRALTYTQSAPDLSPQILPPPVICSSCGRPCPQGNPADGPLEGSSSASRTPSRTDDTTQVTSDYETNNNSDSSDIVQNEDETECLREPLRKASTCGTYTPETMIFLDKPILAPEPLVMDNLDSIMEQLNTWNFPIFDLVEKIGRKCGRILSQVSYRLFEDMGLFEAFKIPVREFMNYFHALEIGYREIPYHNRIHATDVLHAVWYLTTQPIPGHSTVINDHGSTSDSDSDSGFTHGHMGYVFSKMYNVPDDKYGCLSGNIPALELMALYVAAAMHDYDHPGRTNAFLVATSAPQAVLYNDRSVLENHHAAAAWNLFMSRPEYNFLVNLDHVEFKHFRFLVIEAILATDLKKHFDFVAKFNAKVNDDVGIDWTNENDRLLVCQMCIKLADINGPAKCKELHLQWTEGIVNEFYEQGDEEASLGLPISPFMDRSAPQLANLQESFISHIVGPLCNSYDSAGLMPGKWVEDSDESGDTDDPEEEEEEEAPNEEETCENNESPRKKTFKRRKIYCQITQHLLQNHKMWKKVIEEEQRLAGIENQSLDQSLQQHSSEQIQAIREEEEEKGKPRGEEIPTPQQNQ

[2] = tested on: guinea-pig papillary muscle; test: Cardiotonic effect in isolated, electrically driven, right ventricular papillary muscle, without and with carbachol; settings: for EC50: Cavia porcellus; for Ratio B/A of EC50: with 10 μM carbachol / without carbachol
Method: The cardiotonic action of the compound was studied in isolated, electrically driven, right ventricular papillary muscle of guinea-pig.
A = experiments carried out without carbachol
B = experiments carried out in the presence of 10 μM carbachol

[3] = target: T2, cardiac phosphodiesterase III (PDEIII), guinea-pig (Cavia porcellus, UniProt H0VIU9); test: Inhibition of cardiac phosphodiesterase III, guinea-pig heart enzyme preparation; format: biochemical
T2 construct: enzyme preparation isolated from dog and guinea-pig heart; from tissue; host or cells: guinea-pig heart
T2 sequence (H0VIU9 1-1132): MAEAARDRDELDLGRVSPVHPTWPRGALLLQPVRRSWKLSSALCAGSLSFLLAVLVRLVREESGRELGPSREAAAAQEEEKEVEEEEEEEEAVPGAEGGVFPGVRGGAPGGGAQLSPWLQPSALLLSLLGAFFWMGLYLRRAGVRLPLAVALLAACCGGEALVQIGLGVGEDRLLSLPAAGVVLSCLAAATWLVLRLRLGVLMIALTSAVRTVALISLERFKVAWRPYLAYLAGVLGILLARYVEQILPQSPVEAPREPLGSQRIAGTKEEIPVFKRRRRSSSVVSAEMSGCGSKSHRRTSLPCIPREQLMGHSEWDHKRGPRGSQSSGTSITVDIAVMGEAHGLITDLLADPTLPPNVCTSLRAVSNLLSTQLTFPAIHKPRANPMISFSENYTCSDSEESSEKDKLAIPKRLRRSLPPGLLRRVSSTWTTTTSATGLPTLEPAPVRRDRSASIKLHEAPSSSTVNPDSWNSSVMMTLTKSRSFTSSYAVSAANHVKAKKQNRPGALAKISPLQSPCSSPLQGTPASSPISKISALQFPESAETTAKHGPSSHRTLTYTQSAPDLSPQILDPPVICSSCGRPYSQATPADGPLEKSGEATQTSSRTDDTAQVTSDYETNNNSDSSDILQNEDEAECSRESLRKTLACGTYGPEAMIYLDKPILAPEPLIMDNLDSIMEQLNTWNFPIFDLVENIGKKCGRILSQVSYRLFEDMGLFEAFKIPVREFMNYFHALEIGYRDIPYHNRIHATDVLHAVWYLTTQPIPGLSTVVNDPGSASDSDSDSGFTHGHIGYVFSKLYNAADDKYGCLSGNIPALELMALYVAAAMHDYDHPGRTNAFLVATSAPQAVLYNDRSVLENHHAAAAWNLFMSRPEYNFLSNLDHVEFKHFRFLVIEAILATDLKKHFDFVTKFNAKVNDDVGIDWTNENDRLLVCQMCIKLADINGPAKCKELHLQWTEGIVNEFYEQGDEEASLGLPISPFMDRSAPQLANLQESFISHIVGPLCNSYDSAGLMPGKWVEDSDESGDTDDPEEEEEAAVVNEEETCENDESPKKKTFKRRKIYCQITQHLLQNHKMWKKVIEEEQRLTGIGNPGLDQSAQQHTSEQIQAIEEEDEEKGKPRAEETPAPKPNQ
Excerpt: The PDEIII inhibition was studied by using enzyme preparation isolated from dog and guinea-pig heart according to Alajoutsijarvi and Nissinen (Anal. Biochem. 165, 128-132, 1987).

[4] = tested on: guinea-pig papillary muscle; test: Ability to induce tonic contraction in papillary muscle in the absence of extracellular calcium; settings: drug concentration 100 μM; no extracellular calcium
Method: The cardiotonic action of the compound was studied in isolated, electrically driven, right ventricular papillary muscle of guinea-pig. In order to compare the cardiotonic action based on PDEIII inhibition to that based on the other mechanisms the experiments were carried out in normal Tyrode's bathing solution (Otani et al., Japan. J. Pharmacol. 45, 425, 1987) and also in the solution with carbachol to eliminate the cardiotonic action due to the PDEIII inhibition (Alousi & Johnson, Circulation, 73 (suppl. III), 10-23, 1986).
C = ability to induce tonic contraction in the absence of extracellular
calcium; drug concentration 100 μM

troponin = test: Retention time in troponin high-performance liquid affinity chromatography (HPLAC) column, calcium dependent binding to troponin; settings: for Ratio Ca^2+ /EDTA (retention times in troponin-HPLAC column): Ca^2+ solution / EDTA solution; for Retention time in troponin-HPLAC column, Ca^2+ solution: mobile phase with 30 mM calcium; for Retention time in troponin-HPLAC column, Ca^2+ solution / Retention time in troponin-HPLAC column, EDTA solution: flow rate 1 ml/min; for Retention time in troponin-HPLAC column, EDTA solution: mobile phase without calcium (EDTA)
Method: The contraction in cardiac muscle and in vascular smooth muscle is triggered by the binding of calcium to troponin and to calmodulin, respectively. […] Commercially available troponin was coupled to the matrix of SelectiSpher-10™ Activated Tresyl silica HPLAC column (size 10 cm×5 mm). The compounds were run through the column with the flow rate 1 ml/min and detected by UV-spectrophotometrically.

[5] = Precipitation at 100 μM concentration (footnote of Table 3); format: physicochemical; parameters: key: *: precipitation occurs at 100 μM concentration; settings: printed in column C of Table 3
[6] = dog heart, read-out: IC50-value, inhibition of cardiac phosphodiesterase III, Dog
[7] = read-out: EC50 cardiotonic effect (A)
[8] = without carbachol, read-out: EC50 cardiotonic effect (A)

| Structure (SMILES) | IC50 [1, 6] [nM] | IC50 [3] [nM] | EC50 [2, 8] [nM] | Ratio Ca^2+ /EDTA (retention times in troponin-HPLAC column) (troponin) | Retention time in troponin-HPLAC column, Ca^2+ solution (troponin) [min] | Retention time in troponin-HPLAC column, EDTA solution (troponin) [min] | precipitation [5] | EC50 ([2]; in the presence of 10 μM carbachol, read-out: EC50 cardiotonic effect (B)) [nM] | EC50 [2, 7] [nM] | C: ability to induce tonic contraction in the absence of extracellular calcium [4] | Ratio B/A of EC50 [2] | IC50 [1] [nM] |
| --- | --- | --- | --- | --- | --- | --- | --- | --- | --- | --- | --- | --- |
| CC1CC(=O)NN=C1c1ccc(NN=C(C#N)C#N)cc1 (stereo not shown) [Example 6, 6-[4-(1,1-dicyanomethylidenehydrazino)phenyl]-4,5-dihydro-5-methylpyridazin-3(2H)one] | 62 | – | – | – | – | – | – | – | 170 | – | – | – |
| CC1(C)C(=O)Nc2cc3[nH]c(-c4ccncc4)nc3cc21 [adibendan, reference compound] | 1000 | – | – | 0.99 | 14.8 | 15.0 | – | – | – | – | – | – |
| N#CC(C#N)=NNc1ccc(C2=NNC(=O)CC2)cc1 [Example 1, 6-[4-(1,1-dicyanomethylidenehydrazino)phenyl]-4,5-dihydropyridazin-3(2H)one] | 270 | – | – | 1.59 | 3.5 | 2.2 | – | – | 1800 | yes | 2.0 | – |
| Cc1[nH]c(=O)c(C#N)cc1-c1ccncc1 [milrinone, reference compound] | – | 440 | – | 1.00 | 1.2 | 1.2 | – | – | 360 | no | 15.3 | 580 |
| N#CC(C#N)=NNc1ccc(C=CC2=NNC(=O)SC2)cc1 [Example 49, 5-[2-(4-(1,1-dicyanomethylidenehydrazino)phenyl)ethenyl]-5,6-dihydro-1,3,4-thiadiazin-2(3H)one] | – | 24 | – | 2.30 | 18.4 | 8.0 | – | – | 1100 | yes | – | – |

More lines, main results first:

| IC50 [1, 6] [nM] | IC50 [3] [nM] | EC50 [2, 8] [nM] | Ratio Ca^2+ /EDTA (retention times in troponin-HPLAC column) (troponin) | Retention time in troponin-HPLAC column, Ca^2+ solution (troponin) [min] | Retention time in troponin-HPLAC column, EDTA solution (troponin) [min] | precipitation [5] | EC50 ([2]; in the presence of 10 μM carbachol, read-out: EC50 cardiotonic effect (B)) [nM] | Structure (SMILES) | EC50 [2, 7] [nM] | C: ability to induce tonic contraction in the absence of extracellular calcium [4] | Ratio B/A of EC50 [2] | IC50 [1] [nM] |
| --- | --- | --- | --- | --- | --- | --- | --- | --- | --- | --- | --- | --- |
| – | 51 | 1100 | – | – | – | – | – | N#CC(C#N)=NNc1ccc(C2=NNC(=O)SC2)cc1 [Example 44, 5-[4-(1,1-dicyanomethylidenehydrazino)phenyl]-5,6-dihydro-1,3,4-thiadiazin-2(3H)one] | – | yes | – | – |
| – | – | – | 2.33 | 2.1 | 0.9 | – | – | N#CC(C#N)=NNc1ccc(C2=NNC(=O)NC2)cc1 [Example 45, 6-[4-(1,1-dicyanomethylidenehydrazino)phenyl]-4,5-dihydro-1,2,4-triazin-3(2H)one] | – | – | – | – |
| – | 17 | – | 2.00 | 2.4 | 1.2 | – | – | CC1NC(=O)NN=C1c1ccc(NN=C(C#N)C#N)cc1 (stereo not shown) [Example 43, 6-[4-(1,1-dicyanomethylidenehydrazino)phenyl]-4,5-dihydro-5-methyl-1,2,4-triazin-3(2H)one] | – | – | – | – |
| 1750 | – | 3300 | 0.88 | 70.4 | 79.6 | – | – | COc1ccc(-c2nc3ccc(C4=NNC(=O)CC4C)cc3[nH]2)cc1 (stereo not shown) [pimobendan, reference compound] | – | no | – | – |
| 420 | – | – | 0.52 | 6.5 | 12.4 | – | – | O=C1CCC(c2ccc(Nc3ccncc3)cc2)=NN1 [MCI-154, reference compound] | – | – | – | – |
| – | 24 | 120 | 2.19 | 10.5 | 4.8 | – | – | CC1SC(=O)NN=C1c1ccc(NN=C(C#N)C#N)cc1 (stereo not shown) [Example 41, 5-[4-(1,1-dicyanomethylidenehydrazino)phenyl]-5,6-dihydro-6-methyl-1,3,4-thiadiazin-2(3H)one] | – | yes | – | – |
| – | 6 | 300 | 1.69 | 6.6 | 3.9 | – | – | CC1CC(=O)NN=C1/C=C/c1ccc(NN=C(C#N)C#N)cc1 (stereo not shown) [Example 33, (E)-6-[2-(4-(1,1-dicyanomethylidenehydrazino)phenyl)ethenyl]-4,5-dihydro-5-methylpyridazin-3(2H)one] | – | yes | – | – |
| 230 | – | 740 | 1.29 | 5.4 | 4.2 | * | 2700 | CC(=O)C(=NNc1ccc(C2=NNC(=O)CC2)cc1)C(C)=O [Example 7, 6-[4-(1,1-diacetylmethylidenehydrazino)phenyl]-4,5-dihydropyridazin-3(2H)on] | – | – | 3.6 | – |
